The subject of this assay is rat aorta. Briefly: In vitro activity in rat aorta stimulated by potassium ions. In kind it is cell-based, rat (male Wistar). As to conditions: 1 h; rat aorta rings, KCl 80 mM stimulation, cumulative doses at 60 minutes intervals. On the procedure: Determination of the Vitro Activity in Rat Aorta Stimulated by Potassium Ions
This trial was carried out using isolated organs removed from male Wistar rats weighing 300 to 400 g, kept under a water diet 18 hours before sacrificing.
After quickly sacrificing the animal, the aorta (at the level of the arch of the aorta) is removed and dissected into 2 mm-long rings; the endothelium is removed mechanically. After an equilibration period of 1 hour in a physiological solution consisting of (mM): NaCl 112, KCl 5, KH2 PO4 1, MgSO4 1.2, CaCl2 2.5, NaHCO3 25 and glucose 11.5, the preparations are stimulated with a potassium-rich solution. The latter consists of (mM):NaCl 37, KCl 80, KH2 PO4 1, MgSO4 1.2, CaCl2 2.5, NaHCO3 25 and glucose 11.5. This solution has a pH of 7.4 at 37° C.
After 15 minutes of stabilization, the compounds to be tested are then added (sample volume 0.2 ml) at cumulative doses at 60 minutes intervals. From the relaxation values obtained, it is possible to construct a doseresponse curve, leading to the calculation of an IC50 value (expressed in M).

Where a name gives a salt, the structure may show the parent alone.

A word on the IC50: it is the concentration that gives 50% inhibition.

The compound `CCOC(=O)C1=C(COCCOCCN)NC(C)=C(C(=O)OC)C1c1ccc(OC)c(OC)c1OC` (racemic) [EXAMPLE 3, (4R,S)-2-{[2-(2-Aminoethoxy)ethoxy]methyl}-3-ethoxycarbonyl-5-methoxycarbonyl-6-methyl-4-(2,3,4-trimethoxyphenyl)-1,4-dihydropyridine fumarate] yielded an IC50 of 1000 nM.

With `COC(=O)C1=C(C)NC(COCCOCCN)=C(C(=O)OCC(C2CC2)C2CC2)C1c1ccccc1Cl` (racemic) [EXAMPLE 4, (4R,S)-2-{[2-(2-Aminoethoxy)ethoxy]methyl}-4-(2-chlorophenyl)-3-(2,2-dicyclopropylethoxycarbonyl)-5-methoxycarbonyl-6-methyl-1,4-dihydropyridine fumarate], 300 nM corresponded to half-maximal inhibition (IC50).

As to `CCOC(=O)C1=C(COCCOCCN)NC(C)=C(C(=O)OCC(C2CC2)C2CC2)C1c1ccccc1Cl` (racemic) [EXAMPLE 9, (4R,S)-2-{[2-(2-Aminoethoxy)ethoxy]methyl}-4-(2-chlorophenyl)-5-(2,2-dicyclopropylethoxycarbonyl)-3-ethoxycarbonyl-6-methyl-1,4-dihydropyridine fumarate], the IC50 turned out to be 3000 nM.

The compound `CCOC(=O)C1=C(COCCOCCN)NC(COC)=C(C(=O)OC)C1c1cccc(Cl)c1Cl` (racemic) [EXAMPLE 10, (4R,S)-2-{[2-(2-Aminoethoxy)ethoxy]methyl}-4-(2,3-dichlorophenyl)-3-ethoxycarbonyl-5-methoxycarbonyl-6-methoxymethyl-1,4-dihydropyridine] had an IC50 of 90 nM. Turning to `CCOC(=O)C1=C(COCCOCC[N+](C)(C)Cc2ccccc2)NC(C)=C(C(=O)OC)C1c1cccc(Cl)c1Cl` (racemic) [EXAMPLE 11, N-Benzyl-7-[(4R,S)-3-ethoxycarbonyl-4-(2,3-dichlorophenyl)-5-methoxycarbonyl-6-methyl-2-(1,4-dihydropyridyl)]-N,N-dimethyl-3,6-dioxaheptanammonium iodide], the IC50 is 250 nM. As for `COC(=O)C1=C(C)NC(CCCCCCCN)=C(C(=O)OCC(C2CC2)C2CC2)C1c1ccccc1Cl` (racemic) [EXAMPLE 13, (4R,S)-2-(7-Aminoheptyl)-4-(2-chlorophenyl)-3-(2,2-dicyclopropylethoxycarbonyl)-5-methoxycarbonyl-6-methyl-1,4-dihydropyridine fumerate], the IC50 was 300 nM. Regarding `CCOC(=O)C1=C(CCCCCN)NC(C)=C(C(=O)OC)C1c1ccccc1Cl` (racemic) [EXAMPLE 14, (4R,S)-2-(5-Aminopentyl)-4-(2-chlorphenyl)-3-ethoxycarbonyl-5-methoxycarbonyl-6-methyl-1,4-dihydropyridine citrate], half-maximal inhibition (IC50) required 40 nM.

`CCOC(=O)C1=C(C)NC(COCCOCCN)=C(C(=O)OCC)C1c1c(F)c(F)c(F)c(F)c1F` (racemic) [EXAMPLE 15, (4R,S)-2-{[2-(2-Aminoethoxy)ethoxy]methyl}-3,5-diethoxycarbonyl-6-methyl-4-pentafluorophenyl-1,4-dihydropyridine] returned an IC50 of 120 nM.

Take `CCCNCCOCCOCC1=C(C(=O)OCC)C(c2c(F)c(F)c(F)c(F)c2F)C(C(=O)OCC)=C(C)N1` (racemic) [EXAMPLE 16, (4R,S)-3,5-Diethoxycarbonyl-6-methyl-4-pentafluorophenyl-2-[{2-[2-(N-propylamino)ethoxy]ethoxy}methyl]-1,4-dihydropyridine oxalate]: the IC50 was determined as 61 nM. Turning to `CCOC(=O)C1=C(COCCOCCN)NC(C)=C(C(=O)OC)C1c1ccccc1C(F)(F)F` (racemic) [EXAMPLE 17, (4R,S)-2-{[2-(2-Aminoethoxy)ethoxy]methyl}-3-ethoxycarbonyl-5-methoxycarbonyl-6-methyl-4-(2-trifluoromethylphenyl)-1,4-dihydropyridine fumarate], it took 7.6 nM to reach half-maximal inhibition (IC50).

`CCOC(=O)C1=C(COCCOCCN)NC(C)=C(C(=O)OC)C1c1cccc(Cl)c1` (racemic) [EXAMPLE 18, (4R,S)-2-{[2-(2-Aminoethoxy)ethoxy]methyl}-4-(3-chlorophenyl)-3-ethoxycarbonyl-5-methoxycarbonyl-6-methyl-1,4-dihydropyridine tartrate] had an IC50 of 4.7 nM. Consider `COC(=O)C1=C(C)NC(COCCOCCN)=C(C(=O)OC)C1c1c(F)c(F)c(F)c(F)c1F` (racemic) [EXAMPLE 19, (4R,S)-2-{[2-(2-Aminoethoxy)ethoxy]methyl}-3,5-dimethoxycarbonyl-6-methyl-4-pentafluorophenyldihydropyridine tartrate], for which half-maximal inhibition (IC50) required 4.9 nM. As to `CCOC(=O)C1=C(C)NC(COCCOCCN)=C(C(=O)OC)C1c1c(F)c(F)c(F)c(F)c1F` (racemic) [EXAMPLE 20, (4R,S)-2-{[2-(2-Aminoethoxy)ethoxy]methyl}-5-ethoxycarbonyl-3-methoxycarbonyl-6-methyl-4-pentafluorophenyldihydropyridine tartrate], it took 26 nM to reach half-maximal inhibition (IC50). In the case of `CCOC(=O)C1=C(COCCOCCNC(=O)C(F)(F)F)NC(C)=C(C(=O)OC)C1c1c(F)c(F)c(F)c(F)c1F` (racemic) [EXAMPLE 21, (4R,S)-2-[{2-[2-(N-Trifluoroacetylamino)ethoxy]-ethoxy}methyl]-3-ethoxycarbonyl-5-methoxycarbonyl-6-methyl-4-pentafluorophenyl-1,4-dihydropyridine], half-maximal inhibition (IC50) required 68 nM. The same measure for `CCOC(=O)C1=C(COCCOCCN)NC(C)=C(C(=O)OC)C1c1cccc(SC)c1OC` (racemic) [EXAMPLE 22]: 20 nM; for `COC(=O)C1=C(C)NC(COCCOCCN)=C(C(=O)OCc2ccc([N+](=O)[O-])cc2)C1c1c(F)c(F)c(F)c(F)c1F` (racemic) [EXAMPLE 23, (4R,S)-2-{[2-(2-Aminoethoxy)ethoxy]methyl}-3-(4-nitrobenzyloxycarbonyl)-5-methoxy-6-methyl-4-pentafluorophenyl-1,4-dihydropyridine tartrate]: 200 nM; for `CCOC(=O)C1=C(COCCCOCCCN)NC(C)=C(C(=O)OC)C1c1c(F)c(F)c(F)c(F)c1F` (racemic) [EXAMPLE 24, (4R,S)-2-{[3-(3-Aminopropoxy)propoxy]methyl}-3-ethoxycarbonyl-5-methoxycarbonyl-4-pentafluorophenyl-1,4-dihydropyridine tartrate]: 0.82 nM. For the compound `COC(=O)C1=C(C)NC(COCCOCCN)=C(C(=O)OC(C)C)C1c1cccc(Cl)c1Cl` (racemic) [EXAMPLE 25, (4R,S)-2-{[2-(2-Aminoethoxy)ethoxy]methyl}-4-(2,3-dichlorophenyl)-3-isopropoxycarbonyl-5-methoxycarbonyl-6-methyl-1,4-dihydropyridine fumarate], it took 13 nM to reach half-maximal inhibition (IC50). In turn, `COC(=O)C1=C(C)NC(COCCOCCN)=C(C(=O)OC(C)C)C1c1c(F)c(F)c(F)c(F)c1F` (racemic) [EXAMPLE 26, (4R,S)-2-{[2-(2-Aminoethoxy)ethoxy]methyl}-3-isopropoxycarbonyl-5-methoxycarbonyl-6-methyl-4-pentafluorophenyl-1,4-dihydropyridine tartrate] came in with an IC50 of 310 nM. With `CCOC(=O)C1=C(COCCCOCCCN)NC(C)=C(C(=O)OC)C1c1cccc(Cl)c1Cl` (racemic) [EXAMPLE 27, (4R,S)-2-{[3-(3-Aminopropoxy)propoxy]methyl}-4-(2,3-dichlorophenyl)-3-ethoxycarbonyl-5-methoxycarbonyl-6-methyl-1,4-dihydropyridine fumarate], the IC50 turned out to be 4.4 nM.

The record behind these values is patent US4983740A, “Process for 1,4-dihydropyridine compounds” (Adir et Compagnie, priority 1986, dated 1991).
